Source: ChEMBL document CHEMBL1201862, “PubChem BioAssay data set” (2004)
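Growth conditions: 96-well plates. Treatment: test compound, 48 hours, 5 concentrations. Analysis: linear interpolation between bracketing concentrations; unreached endpoints set to highest concentration. At the GI50, growth is halved.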 The source made the active and inactive calls. Rule as the data show it: active = GI50 up to about 1.1 µM and inactive = higher.

How the values were obtained:
Test in all cases: NCI anticancer screen, dose series, 48 h
[1] = system: A498
[2] = system: OVCAR-8
[3] = system: TK-10
[4] = system: SNB-19
[5] = system: CCRF-CEM
[6] = system: NCI/ADR-RES
[7] = system: Hs-578T
[8] = system: U-251
[9] = system: K562
[10] = system: ACHN
[11] = system: EKVX
[12] = system: T47D
[13] = system: MDA-MB-231
[14] = system: RPMI-8226
[15] = system: CAKI-1
[16] = system: RXF 393
[17] = system: UACC-62
[18] = system: LOX IMVI
[19] = system: Malme-3M
[20] = system: NCI-H522

Measured: GI50

O=C1/C(=C/c2cccc([N+](=O)[O-])c2)N=C(c2ccccc2)N1c1nc2c(Cl)cc(Cl)cc2s1
inactive: [1] 18.7 µM | [2] 22 µM | [3] 45.2 µM | [4] 23.1 µM | [5] 10.4 µM | [6] 28.4 µM | [7] 35.8 µM | [8] 17.8 µM | [9] 31.1 µM | [10] 27.7 µM | [11] 15.5 µM | [12] 24.9 µM | [13] 29.4 µM | [14] 31.2 µM | [15] 40.7 µM | [16] 27.9 µM | [17] 29.2 µM | [18] 16.4 µM

CCCCCCCC(CC(=O)NC(CO)C(=O)NC(CO)CC(C)C)OC(=O)CC(CCCCCCC)OC(=O)CC(CCCCCCC)OC1OC(C)C(O)C(OC2OC(C)C(OC(C)=O)C(O)C2O)C1O (stereo not given)
inactive: [1] 11.3 µM | [2] 9.27 µM | [3] 16.1 µM | [4] 5.27 µM | [5] 3.7 µM | [7] 4.22 µM | [8] 4.41 µM | [19] 10.6 µM | [9] 4.61 µM | [10] 15.7 µM | [11] 14.9 µM | [12] 9.14 µM | [13] 7.91 µM | [20] 11.7 µM | [15] 15.2 µM | [16] 3.76 µM | [17] 6.34 µM

O=c1oc2ccc([N+](=O)[O-])cc2c(Nc2ccc3c(c2)Oc2ccccc2O3)c1[N+](=O)[O-]
inactive: [2] 26.8 µM | [3] 37.3 µM | [4] 28.6 µM | [5] 30.1 µM | [6] 29.9 µM | [7] 44.3 µM | [8] 18.9 µM | [19] 69.8 µM | [9] 30 µM | [10] 32.2 µM | [11] 31.6 µM | [12] 50.2 µM | [13] 19.1 µM | [20] 35.5 µM | [14] 23.3 µM | [15] 28.8 µM | [16] 56 µM | [17] 25.6 µM | [18] 31.7 µM

CSCCC(NCc1c(O)ccc2ccc(=O)oc12)C(=O)O (stereo not given)
inactive: [2] > 100 µM | [3] > 100 µM | [4] > 100 µM | [5] > 100 µM | [6] > 100 µM | [7] 4.78 µM | [8] > 100 µM | [19] > 100 µM | [9] > 100 µM | [10] > 100 µM | [11] > 100 µM | [12] > 100 µM | [13] > 100 µM | [20] > 100 µM | [14] > 100 µM | [15] > 100 µM | [16] > 100 µM | [17] > 100 µM | [18] > 100 µM

CN(C)c1ccc(/C=C/C(=O)CC(=O)/C=C/c2ccc(N(C)C)cc2)cc1
inactive: [2] > 100 µM | [3] > 100 µM | [4] > 100 µM | [5] > 100 µM | [6] > 100 µM | [7] > 100 µM | [8] > 100 µM | [19] > 100 µM | [9] > 100 µM | [10] > 100 µM | [11] > 100 µM | [12] > 100 µM | [13] 85.1 µM | [20] > 100 µM | [14] > 100 µM | [15] > 100 µM | [16] > 100 µM | [17] 56.4 µM | [18] 15.7 µM

CC1(C)C(=S)C(C)(C)C1=S
inactive: [3] > 100 µM | [4] > 100 µM | [6] > 100 µM | [7] > 100 µM | [8] > 100 µM | [19] > 100 µM | [9] > 100 µM | [10] > 100 µM | [11] > 100 µM | [12] > 100 µM | [13] > 100 µM | [14] > 100 µM | [17] > 100 µM | [18] > 100 µM

CN1CCN(c2ccc3nc(C4=C(O)C(=O)[C@@H]5C(=C4O)N=C(CO)N5C)[nH]c3n2)CC1
inactive: [2] 61.1 µM | [4] 57.5 µM | [5] 97.5 µM | [6] > 100 µM | [7] > 100 µM | [8] 41.4 µM | [19] > 100 µM | [9] 24 µM | [10] > 100 µM | [11] > 100 µM | [12] 17.7 µM | [13] 62.5 µM | [20] 64.3 µM | [14] > 100 µM | [15] > 100 µM | [16] > 100 µM | [17] 33.3 µM | [18] 73.1 µM

c1ccc2c(c1)c1c(n2CCOCCN2CCOCC2)CCCC1
inactive: [1] 34.1 µM | [2] 36.7 µM | [3] 18.4 µM | [4] > 100 µM | [5] 21.8 µM | [6] 16.3 µM | [7] 57 µM | [8] 23.6 µM | [19] 13.8 µM | [9] 33.6 µM | [10] 30.8 µM | [11] 30.9 µM | [12] 32.2 µM | [13] 17.3 µM | [14] 21 µM | [15] 15.2 µM | [18] 20.2 µM

c1cc2cc3c4c5c(cc6ccc7cc8cc9c%10c8c8c7c6c5c8c5c%10c(c1C9N1CCOCCOCCOCCOCCOCC1)c2c45)C3 (stereo not given)
inactive: [2] > 100 µM | [3] > 100 µM | [4] > 100 µM | [5] > 100 µM | [6] > 100 µM | [7] > 100 µM | [8] > 100 µM | [19] > 100 µM | [9] > 100 µM | [10] > 100 µM | [11] > 100 µM | [12] > 100 µM | [13] > 100 µM | [20] > 100 µM | [14] > 100 µM | [16] > 100 µM | [17] > 100 µM | [18] > 100 µM

O=C1NN=C2C=C(c3ccc(Cl)cc3)CC(c3cccc(Br)c3)C12 (stereo not given)
inactive: [2] > 100 µM | [3] 54.5 µM | [4] 21.2 µM | [5] 22 µM | [6] > 100 µM | [7] 19.1 µM | [8] 59.2 µM | [19] > 100 µM | [9] 32.9 µM | [10] 33.7 µM | [11] 47.5 µM | [12] 22.1 µM | [13] 30.4 µM | [20] 38.4 µM | [14] 26.1 µM | [15] 23.4 µM | [16] 62.8 µM | [17] 87.3 µM | [18] 46.9 µM

CC1=CC(O)(c2ccccc2)C(N2CCOCC2)N1O (stereo not given)
inactive: [2] > 100 µM | [3] > 100 µM | [4] > 100 µM | [5] 91.4 µM | [6] > 100 µM | [7] > 100 µM | [8] > 100 µM | [19] > 100 µM | [9] > 100 µM | [10] > 100 µM | [11] > 100 µM | [12] > 100 µM | [13] > 100 µM | [20] > 100 µM | [14] > 100 µM | [15] > 100 µM | [18] > 100 µM
